# Laboratory results as given in patent US20180177753A1, “GLYCERYL 3-HYDROXYBUTYRATES FOR MIGRAINE SYMPTOM MANAGEMENT” (NeuroEnergy Ventures, Inc., priority 2016, published 2018).
# What was measured:
# Format in all cases: in vivo
# [1] = Self-administration at onset of prodromal visual disturbances in a subject with episodic migraines; conditions: 60 kg female, 15 g orally within minutes of visual disturbances, 3 times a day for 4 days
# Text: A 60 kg person presents with episodic migraines occurring one such headache occurring and then not again for a number of months. At each event, shortly before the headache begins, the subject has visual disturbances classic of migraine. The subject is requested to self-administer 15 grams of glyceryl tris(3-hydroxybutyrate) upon noticing the next time visual disturbance of this type appear and continue to do so 3 times a day for 4 days. The subject notices such symptoms, and ingests 15 g of glyceryl tris(3-hydroxybutyrate) within minutes of noticing the symptoms.
# [2] = Preventive administration before an expected migraine in a subject with chronic repetitive migraine; conditions: 70 kg male of Example 2, 20 g 3 times a day, days 90 to 130, started about 5-6 days before expected onset
# Text: The subject of Example 2 discontinues the administration after 35 days, is migraine free for two months and a further episode occurs and Example 2 is followed again, counting the start of this second migraine as day 1, except that after ceasing the administration on day 35, the subject begins administration again on day 90 (about 5-6 days before an expected onset of a further migraine based on this subject's history) and continues administration for an additional 40 days (that is for days 90 to 130).
# [3] = Self-administration at migraine onset in subjects with chronic repetitive migraine; conditions: 70 kg male, 20 g at migraine onset, 3 times a day for 35 days
# Text: There is no known or suspect event triggering these events. The subject is instructed to self-administer 20 g of glyceryl tris(3-hydroxybutyrate) upon the onset of the migraine and to continue to self-administer at this dosage 3 times a day for 35 days.
# A 60 kg person presents with chronic repetitive migraine with a similar repetitive pattern to the subject of Examples 2 and 3. They are instructed to self-administer 15 g of glyceryl tris(3-hydroxybutyrate) upon the onset of the migraine, rather than the 20 g as in Examples 2 and 3, but otherwise to follow the regimen in Examples 2 and 3.
compound,measurement,setting,value
CC(O)CC(=O)OCC(COC(=O)CC(C)O)OC(=O)CC(C)O (stereo not shown) [glyceryl tris(3-hydroxybutyrate)],"duration of the headache that follows, versus past episodes",[1],lesser duration
same,"intensity of the headache that follows, versus past episodes",[1],lesser intensity
same,occurrence of the expected migraine (days 94-95) during the administration period,[2],no such migraine appears
same,"duration of the usual initial migraine, versus past history",[3],shorter duration
same,"frequency of the repetitive migraines, versus past history",[3],further reduced in frequency
same,"intensity of the repetitive migraines, versus past history",[3],further reduced in frequency and intensity
same,"severity of the usual initial migraine, versus past history",[3],less severe
